Assay results from US5334761A, “Cationic lipids” (Life Technologies, Inc., priority 1992, dated 1994).
Counter-ions that a name gives are not always drawn.

What was measured:
[1] = % protein (toxicity estimate, Bradford) after transfection; type: cell-based, rat; conditions: rat, pc12 cells; 40 μg lipid; 2 μg pCMVCAT; 6 h DMEM
Experimental: (§1) A one-to-one mixture (by weight) of the desired lipid and dioleylphosphatidyl ethanolamine was prepared in CHCl3. The CHCl3 was removed on the rotary evaporator to obtain a thin film of lipid mixture. The mixture was hydrated with enough water to obtain approximately 1.25 mg of lipid per ml of solution. The solution was passed through a microfluidizer twice and diluted to 1 mg/ml. The liposome formulation was then filtered through a 0.2 μ filter. Compound 8 was also formulated without DOPE either by sonication at 1 mg/ml in water or by dissolving a dried lipid film with ethanol and then adding water to give a final concentration of 2.5 mg/ml. Ethanol was 10% of that volume. In some instances, this was further diluted with water to 1 mg/ml, 4% ethanol.
(§2) Baby hamster kidney (BHK-21) , COS-7, HeLa-S3 cells, and normal human fibroblasts isolated from newborn foreskin dermis were grown in Dulbecco's-modified Eagle's medium (DMEM) containing 10% fetal bovine serum (FBS), 2 mM L-glutamine (gln), 0.1 mM MEM nonessential amino acids (NEAA), 100 U/ml penicillin, and 100 μg/ml streptomycin. […]
(§3) The "% protein" column indicates the relative amount of protein in the sample tested for CAT activity and therefore provides a way to estimate toxicity of the compounds being tested. […] Protein was measured using a commercially available Bradford protein assay (BioRad Laboratories, Richmond, Ca.). […]

[2] = system: PC12 cells; experiment: as above; type: cell-based, rat; conditions: PC12
Experimental: as §1, §2, §3

[3] = system: COS-7 cells; experiment: as above; type: cell-based; conditions: Cos-7
Experimental: as §1, §2, §3

[4] = system: PC12 cells; experiment: CAT transient transfection; type: cell-based, rat
Experimental: as §1, §2
Cell lysates were assayed for CAT activity as described by Neumann et al. (1987) BioTechniques 5:444 using [^14 C]-butyryl coenzyme A (New England Nuclear, Boston, Mass.). […] CAT activity was determined by measuring radioactivity in a liquid scintillation counter. […]

[5] = system: Jurkat cells; experiment: CAT transient transfection; type: cell-based, human
Experimental: as §1
Baby hamster kidney (BHK-21) , COS-7, HeLa-S3 cells, and normal human fibroblasts isolated from newborn foreskin dermis were grown in Dulbecco's-modified Eagle's medium (DMEM) containing 10% fetal bovine serum (FBS), 2 mM L-glutamine (gln), 0.1 mM MEM nonessential amino acids (NEAA), 100 U/ml penicillin, and 100 μg/ml streptomycin. NIH-3T3 cells were grown in DMEM containing 10% calf serum (CS), 2 mMgln, 0.1 mM NEAA 100 U/ml penicillin, and 100 μg/ml streptomycin. PC12 cells were grown in DMEMcontaining 10% horse serum, 5% FBS, 2 mM gln, 0 1 mMNEAA, 100 U/ml penicillin and 100 μ/ml streptomycin. Jurkat cells (human lymphoid cell line) were grown in RPMI-1640 supplemented with 10% FBS, 2mML-glutamine, 100 U/ml penicillin, and 100 μg/ml streptomycin. Human keratinocytes were isolated from newborn foreskin epidermis and cultured in Keratinocyte Growth Medium (Clonetics, San Diego, Ca.). All cell lines were maintained in a humidified incubator with a 5% CO2 atmosphere at 37° C.
pSV2CAT (5.0 Kb) was described previously (Gorman, C. M. et al. (1982) Mol. Cell. Biol. 2:1044). pCMVCAT (5.0 Kb) was also described previously (Foecking M. K. and Hofstetter, H. (1986) Gene 45:101). Plasmid DNA was purified by isopycnic centrifugation in CsCl/EtBr gradients after recovery by alkaline lysis (Maniatis, T. et al. (1982) in Molecular Cloning: A Laboratory Manual, Cold Spring Harbor Laboratory, Cold Spring Harbor, N.Y., pp. 90-91).
For transient nuclear expression of pSV2CAT or pCMVCAT in Jurkat cells, cells were washed with Opti-MEM I or serum-free RPMI 1640 containing 2 mM gln and plated in six-well plates at a density of 3×10^6 cells per well in 0.8 ml Opti-MEM I or RPMI 1640. For each transfection, 5 μg pSV2CAT DNA or 2 μg pCMVCAT DNA was diluted in 100 μl Opti-MEM I. Lipids were diluted separately in another 100 μl aliquot of Opti-MEMI. The two solutions were then mixed in a polystyrene tube and incubated for 10-15 min at room temperature. The DNA-liposome complex was added to the cell suspensions and incubated 6 hours at 37° C., after which 4 ml growth medium were added per well (RPMI-1640; 10% FBS). Phorbol myristate acetate (Sigma Chemical Co., St. Louis, Mo.) and phytohemagglutinin (Sigma) were also added to a final concentration of 50 ng/ml and 1 μg/ml, respectively, to activate the cells. Cells were harvested at approximately 48 hours post-transfection by centrifugation. Cell lysates were prepared by resuspending cell pellets at 0° C. in 0.1 M Tris-HC1 pH 8.0 containing 0.1% Triton X-100 and freeze-thawing once. Cell lysates were cleared by centrifugation and assayed for CAT activity.
Cell lysates were assayed for CAT activity as described by Neumann et al. (1987) BioTechniques 5:444 using [^14 C]-butyryl coenzyme A (New England Nuclear, Boston, Mass.). The enzyme reactions were incubated for 2 hrs at 37° C., overlayed with 3.0 ml Econofluor (New England Nuclear) and then incubated for an additional 2 hrs to allow diffusion of the acetylated chloramphenicol into the scintillation fluid. CAT activity was determined by measuring radioactivity in a liquid scintillation counter. […]

CCCCCCCC/C=C\CCCCCCCCOCC(C[N+](C)(C)CCNC(=O)C(CCCNCCCN)NCCCN)OCCCCCCCC/C=C\CCCCCCCC (stereo not shown) [Compound 8, 1-Propanaminium, N-[2-[[2,5-bis[(3-amino]-1-oxopentyl]amino]ethyl]-n,n-dimethyl-2,3,-bis(9-octadecenyloxy)-, tetra(trifluoroacetate) salt]
viability at 6 h [1]: 66%
toxicity (in words) [2]: minimal toxicity
toxicity (in words) [3]: minimal toxicity
CAT ACTIVITY ([4]; 40 μg lipid, 2 μg pCMVCAT, 6 h DMEM): 28,512 CPM/150 ul
DNA transfection (in words) ([4]; PC12): highly effective
CAT ACTIVITY ([5]; 15 μg lipid, 2 μg pCMVCAT, 6 h RPMI1640): 44,996 CPM/150 ul
DNA transfection (in words) ([5]; Jurkat): highly effective
